One may read the melting point as the temperature, or range, at which the solid turns liquid.

For the compound `COc1c(N2CC(C)C(N)C(C)C2)c(F)cc2c(=O)c(C(=O)O)cn(C3CC3)c12` (stereo not drawn) [Example 33, 1-cyclopropyl-6-fluoro-1,4-dihydro-8-methoxy-7-(4-amino-3,5-dimethyl-1-piperidinyl)-4-oxo-quinoline-3-carboxylic acid], the melting point lay within 238 to 240 °C. For `COc1c(N2CC(C)C(N)C(C)C2)c(F)cc2c(=O)c(C(=O)O)cn(C3CC3)c12` (stereo not drawn) [Example 34, 1-cyclopropyl-6-fluoro-1,4-dihydro-8-methoxy-7-(4-amino-3,5-dimethyl-1-piperidinyl)-4-oxo-quinoline-3-carboxylic acid], the melting point fell in the range of 200 to 204 °C. For `CCNC1C(C)CN(c2c(F)cc3c(=O)c(C(=O)O)cn(C4CC4)c3c2OC)CC1C` (stereo not drawn) [Example 38, 1-cyclopropyl-6-fluoro-1,4-dihydro-8-methoxy-7-(4-ethylamino-3,5-dimethyl-1-piperidinyl)-4-oxo-quinoline-3-carboxylic acid] the value was 250 to 252 °C; for `CCNC1C(C)CN(c2c(F)cc3c(=O)c(C(=O)O)cn(C4CC4)c3c2OC)CC1C` (stereo not drawn) [Example 39, 1-cyclopropyl-6-fluoro-1,4-dihydro-8-methoxy-7-(4-ethylamino-3,5-dimethyl-1-piperidinyl)-4-oxo-quinoline-3-carboxylic acid], 250 to 255 °C; for `COc1c(N2CC(C)C(NC3CC3)C(C)C2)c(F)cc2c(=O)c(C(=O)O)cn(C3CC3)c12` (stereo not drawn) [Example 41, 1-cyclopropyl-6-fluoro-1,4-dihydro-8-methoxy-7-(4-cyclopropylamino-3,5-dimethyl-1-piperidinyl)-4-oxo-quinoline-3-carboxylic acid], 240 to 242 °C. Take `COc1c(N2CC(C)C(N)C(C)C2)c(F)c(N)c2c(=O)c(C(=O)O)cn(C3CC3)c12` (stereo not drawn) [Example 53, 5-Amino-1-cyclopropyl-6-fluoro-1,4-dihydro-8-methoxy-7-(4-amino-3,5-dimethyl-1-piperidinyl)-4-oxo-quinoline-3-carboxylic acid]: the melting point is 248 to 250 °C (dec.). As for `CCNC1C(C)CN(c2c(F)c(N)c3c(=O)c(C(=O)O)cn(C4CC4)c3c2OC)CC1C` (stereo not drawn) [Example 57, 5-amino-1-cyclopropyl-6-fluoro-1,4-dihydro-8-methoxy-7-(4-ethylamino-3,5-dimethyl-1-piperidinyl)-4-oxo-quinoline-3-carboxylic acid], the melting point is 202 to 204 °C. For `CCNC1C(C)CN(c2c(F)c(N)c3c(=O)c(C(=O)O)cn(C4CC4)c3c2OC)CC1C` (stereo not drawn) [Example 58, 5-amino-1-cyclopropyl-6-fluoro-1,4-dihydro-8-methoxy-7-(4-ethylamino-3,5-dimethyl-1-piperidinyl)-4-oxo-quinoline-3-carboxylic acid] the value was 255 to 258 °C; for `COc1c(N2CC(C)C(NC3CC3)C(C)C2)c(F)c(N)c2c(=O)c(C(=O)O)cn(C3CC3)c12` (stereo not drawn) [Example 60, 5-Amino-1-cyclopropyl-6-fluoro-1,4-dihydro-8-methoxy-7-(4-cyclopropylamino-3,5-dimethyl-1-piperidinyl)-4-oxo-quinoline-3-carboxylic acid], 248 °C.

These data come from patent publication US6878713B2, “Generation triple-targeting, chiral, broad-spectrum antimicrobial 7-substituted piperidino-quinolone carboxylic acid derivatives, their preparation, compositions and use as medicaments” (Wockhardt Limited, priority 2001, dated 2005).
